Earlier results, collected in patent US20210069213A1, “COMPOSITION AND METHOD OF TREATMENT FOR DRY A.M.D. (AGE RELATED MACULAR DEGENERATION)” (EYE CO PTY LTD, priority 2018, published 2021).

Experiments:
[1] = biological target: T1, mineralocorticoid receptor (Homo sapiens, UniProt P08235); settings: Table 1; hydrocortisone (cortisol) = 1; cited from earlier work
T1 sequence (P08235 1-984): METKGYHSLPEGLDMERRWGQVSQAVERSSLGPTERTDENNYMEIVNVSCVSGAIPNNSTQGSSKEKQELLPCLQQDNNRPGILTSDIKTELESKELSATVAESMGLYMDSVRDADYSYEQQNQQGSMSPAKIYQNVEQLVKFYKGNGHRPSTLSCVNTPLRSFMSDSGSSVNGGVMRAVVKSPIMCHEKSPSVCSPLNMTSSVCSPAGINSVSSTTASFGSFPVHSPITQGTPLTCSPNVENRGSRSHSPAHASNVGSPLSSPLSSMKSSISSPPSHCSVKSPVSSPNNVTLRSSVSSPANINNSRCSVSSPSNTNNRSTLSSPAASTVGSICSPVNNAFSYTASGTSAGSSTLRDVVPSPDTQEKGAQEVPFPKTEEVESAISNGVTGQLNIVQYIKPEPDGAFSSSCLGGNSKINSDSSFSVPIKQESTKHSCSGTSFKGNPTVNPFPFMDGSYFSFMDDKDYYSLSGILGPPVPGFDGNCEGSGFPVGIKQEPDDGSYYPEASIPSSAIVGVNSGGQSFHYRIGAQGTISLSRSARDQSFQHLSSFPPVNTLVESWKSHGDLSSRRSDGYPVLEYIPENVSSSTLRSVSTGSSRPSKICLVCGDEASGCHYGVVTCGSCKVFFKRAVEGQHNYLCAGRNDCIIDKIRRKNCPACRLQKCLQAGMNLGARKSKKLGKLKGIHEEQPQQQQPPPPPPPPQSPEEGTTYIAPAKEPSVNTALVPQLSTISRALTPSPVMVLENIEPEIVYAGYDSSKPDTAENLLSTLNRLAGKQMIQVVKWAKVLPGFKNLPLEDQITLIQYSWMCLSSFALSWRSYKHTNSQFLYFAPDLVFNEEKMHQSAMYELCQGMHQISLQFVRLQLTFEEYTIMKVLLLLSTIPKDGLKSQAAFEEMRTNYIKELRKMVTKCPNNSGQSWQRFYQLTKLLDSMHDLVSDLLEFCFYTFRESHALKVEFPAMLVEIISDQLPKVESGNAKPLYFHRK

glucocorticoid receptor = biological target: T2, glucocorticoid receptor (Homo sapiens, UniProt P04150); settings: cited from earlier work; for GR potency: Table 1, hydrocortisone (cortisol) = 1
T2 sequence (P04150 1-777): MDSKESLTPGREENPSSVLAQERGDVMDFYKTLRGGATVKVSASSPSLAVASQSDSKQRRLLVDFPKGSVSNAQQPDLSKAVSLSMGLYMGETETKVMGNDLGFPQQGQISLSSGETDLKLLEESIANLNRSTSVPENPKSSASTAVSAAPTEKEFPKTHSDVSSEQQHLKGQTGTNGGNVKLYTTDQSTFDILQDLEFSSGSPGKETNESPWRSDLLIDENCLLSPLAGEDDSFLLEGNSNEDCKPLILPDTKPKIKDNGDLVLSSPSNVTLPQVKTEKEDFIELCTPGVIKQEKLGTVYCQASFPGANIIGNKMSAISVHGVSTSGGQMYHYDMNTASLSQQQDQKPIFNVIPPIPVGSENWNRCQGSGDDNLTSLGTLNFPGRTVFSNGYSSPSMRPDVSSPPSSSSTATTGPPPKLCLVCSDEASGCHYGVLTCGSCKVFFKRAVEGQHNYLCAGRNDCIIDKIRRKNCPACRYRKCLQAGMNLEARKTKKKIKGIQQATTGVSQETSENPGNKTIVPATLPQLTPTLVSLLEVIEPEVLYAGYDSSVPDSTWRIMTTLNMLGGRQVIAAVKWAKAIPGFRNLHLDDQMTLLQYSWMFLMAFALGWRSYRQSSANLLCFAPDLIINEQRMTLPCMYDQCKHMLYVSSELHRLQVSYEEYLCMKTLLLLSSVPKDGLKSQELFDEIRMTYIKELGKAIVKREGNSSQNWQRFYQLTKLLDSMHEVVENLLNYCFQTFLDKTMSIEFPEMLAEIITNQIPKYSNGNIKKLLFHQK

[2] = system: New Zealand albino rabbits; settings: cited from earlier work

Compound	MR potency [1]	GR potency (glucocorticoid receptor)	further results
C[C@]12CCC(=O)C=C1CC[C@@H]1[C@@H]2[C@@H](O)C[C@]2(C=O)[C@@H](C(=O)CO)CC[C@@H]12 [Aldosterone]	200-1000	0.3	–
C[C@H]1C[C@H]2[C@@H]3CCC4=CC(=O)C=C[C@]4(C)[C@@]3(Cl)[C@@H](O)C[C@]2(C)[C@@]1(O)C(=O)CO [Beclometasone]	–	–	GR potency, given as dose equivalence (glucocorticoid receptor; equals 14 mg oral prednisone once/day): 8 puffs 4 times a day;
C[C@]12CCC(=O)C=C1CC[C@@H]1[C@@H]2C(=O)C[C@@]2(C)[C@H]1CC[C@]2(O)C(=O)CO [Cortisone]	0.8	0.8	–
CC(=O)OCC(=O)[C@H]1CC[C@H]2[C@@H]3CCC4=CC(=O)CC[C@]4(C)[C@H]3CC[C@]12C [Deoxycorticosterone acetate]	20	0	–
C[C@]12CCC(=O)C=C1CC[C@@H]1[C@@H]2[C@@H](O)C[C@@]2(C)[C@H]1CC[C@]2(O)C(=O)CO [Hydrocortisone]	1	1	–
C[C@]12C=CC(=O)C=C1CC[C@@H]1[C@@H]2[C@@H](O)C[C@@]2(C)[C@H]1CC[C@]2(O)C(=O)CO [Prednisolone]	0.8	4	–
C[C@]12C=CC(=O)C=C1CC[C@@H]1[C@@H]2C(=O)C[C@@]2(C)[C@H]1CC[C@]2(O)C(=O)CO [Prednisone]	0.8	–	–
C[C@]12C=CC(=O)C=C1CC[C@H]1[C@@H]3C[C@@H](O)[C@](O)(C(=O)CO)[C@@]3(C)C[C@H](O)[C@@]12F [Triamcinolone]	0	5	–
C[C@]12CCC(=O)C=C1CC[C@H]1[C@@H]3CC[C@](O)(C(=O)CO)[C@@]3(C)C[C@H](O)[C@@]12F [fludrocortisone, 9-alpha fluorohydrocortisone]	–	–	ERG change in the other groups ([2]; intravitreal 2 mg, 1 mg, 400 μg/0.1 ml, two weeks after injection): no significant decrease in ERG; intravitreal (vitreous) haemorrhage ([2]; intravitreal 4 mg/0.1 mL): one eye of this group had a vitreous hemorrhage; ERG change ([2]; intravitreal 4 mg/0.1 ml, two weeks after injection): One eye in the 4 mg/0.1 ml fludrocortisone group exhibited significant decreases in ERG; signs of retinal toxicity on slit-lamp examination, indirect ophthalmoscopy, or light microscopy ([2]; rabbit, in vivo): no signs of retinal toxicity
